The record followed here is PubChem BioAssay (NCI).

“And” between values parts separate entries of the source, which are not always exact repeats. Identical values can stand only once.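 The compound was tested at five concentrations on cells cultured in 96-well plates, with a 48-hour exposure period. GI50 = concentration required for 50% inhibition of growth. Definition used: TGI = concentration required for complete inhibition of growth.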 A value given as a limit tells only on which side of the number the result lay.

Test systems include UO-31 renal; SK-OV-3 ovarian; SNB-19 CNS; A549 NSCLC; HCT-15 colon; SW-620 colon; MALME-3M melanoma; HOP-62 NSCLC; OVCAR-8 ovarian; MCF7 breast.
Common to all, as to experiment: DTP human tumour cell line panel, 48 h

Usually GI50 stands for the concentration giving 50% growth inhibition. Broadly, the TGI is the concentration at which net growth stops. Low readings indicate greater sensitivity of the cells, high ones lower sensitivity of the cells. Regarding `Cc1cc(Cl)ccc1Nc1nc(C(F)(F)F)ccc1C(=O)N/N=C/c1c(Cl)cccc1Cl`, the GI50 was 0.301 µM in the assay with UO-31 renal; 0.486 µM in the assay on SK-OV-3 ovarian; 0.683 µM in the assay on SNB-19 CNS; 0.51 µM in the assay with A549 NSCLC; 0.145 µM with HCT-15 colon; 0.322 µM with SW-620 colon. Further, the GI50 in the assay with MALME-3M melanoma was 0.494 µM; with HOP-62 NSCLC, 0.876 µM; with OVCAR-8 ovarian, 0.445 µM; in the assay with MCF7 breast, 0.233 µM. Further, the TGI was 3.29 µM in the assay with SK-OV-3 ovarian; over 56.6 µM in the assay with SNB-19 CNS; over 100 µM with A549 NSCLC; over 100 µM in the assay on HCT-15 colon; over 100 µM with SW-620 colon; 2.5 µM in the assay on MALME-3M melanoma. The TGI is over 27.2 µM with HOP-62 NSCLC, over 100 µM in the assay on OVCAR-8 ovarian and 0.749 µM in the assay on MCF7 breast.
For the compound `CCN(CC)CCCC(C)Nc1ccnc2cc(Cl)c(SCc3ccccc3)cc12` (centres undefined), the GI50 with UO-31 renal was 1.35 µM; with SK-OV-3 ovarian, 1.93 µM; in the assay with SNB-19 CNS it was 1.78 µM; with A549 NSCLC it was 1.85 µM; in the assay with HCT-15 colon, 0.417 µM; with SW-620 colon it was 0.928 µM. Further, the GI50 was 1.71 µM in the assay on MALME-3M melanoma, 1.37 µM with HOP-62 NSCLC, 1.73 µM in the assay on OVCAR-8 ovarian and 0.506 µM in the assay on MCF7 breast. The TGI with UO-31 renal stood at 2.95 µM; in the assay with SK-OV-3 ovarian, 3.69 µM; in the assay on SNB-19 CNS, 4.41 µM; in the assay on A549 NSCLC, 3.59 µM; in the assay with HCT-15 colon it was 1.63 µM; in the assay with SW-620 colon, 2.92 µM. The TGI came to 3.68 µM in the assay with MALME-3M melanoma, 3.01 µM with HOP-62 NSCLC, 3.44 µM in the assay on OVCAR-8 ovarian and 1.72 µM in the assay on MCF7 breast.
Regarding `COc1ccc(/C=C/C(=O)c2ccc(NC(=O)CSc3nnc(-c4cc(OC)c(OC)c(OC)c4)o3)cc2)cc1`, the GI50 in the assay with UO-31 renal was 1.46 µM; in the assay on SK-OV-3 ovarian, 2.42 µM; with SNB-19 CNS it was 1.78 µM; with A549 NSCLC, 1.84 µM; with HCT-15 colon, 1.63 µM; in the assay with SW-620 colon it was 1.86 µM. Besides, the GI50 with MALME-3M melanoma is 1.68 µM; with HOP-62 NSCLC, 2.13 µM; in the assay on OVCAR-8 ovarian, 2.32 µM; in the assay with MCF7 breast, 1.27 µM. Besides, the TGI came to 2.97 µM in the assay with UO-31 renal; 5.68 µM with SK-OV-3 ovarian; 3.56 µM in the assay with SNB-19 CNS; 3.53 µM with A549 NSCLC; 3.22 µM in the assay on HCT-15 colon; 3.6 µM in the assay with SW-620 colon. The TGI in the assay on MALME-3M melanoma was 3.45 µM; in the assay on HOP-62 NSCLC, 4.53 µM; in the assay with OVCAR-8 ovarian, 5.73 µM; in the assay on MCF7 breast, 3.68 µM.
For `C#CCOc1c(OC)cc(C(=O)/C(C)=C/c2cccc(N=[N+]=[N-])c2)cc1OC`, the GI50 in the assay on UO-31 renal is 0.751 µM; in the assay with SK-OV-3 ovarian it was 0.674 µM; in the assay with SNB-19 CNS, 0.333 µM; in the assay with A549 NSCLC, 0.406 µM; with HCT-15 colon it was 0.0499 µM; in the assay on SW-620 colon, 0.0503 µM. Also, the GI50 with HOP-62 NSCLC is 0.214 µM; in the assay with OVCAR-8 ovarian, 0.427 µM; in the assay on MCF7 breast, 0.0447 µM. Also, the concentration for total growth inhibition (TGI) in the assay on UO-31 renal, with SK-OV-3 ovarian, in the assay on SNB-19 CNS, with A549 NSCLC, with HCT-15 colon and with SW-620 colon was over 100 µM throughout. Moreover, the TGI with HOP-62 NSCLC, in the assay on OVCAR-8 ovarian and with MCF7 breast was over 100 µM each time.
Take `COC(=O)/C(Br)=C/c1c[nH]c2ccc(Br)cc12`: the GI50 was 6.36 µM in the assay on UO-31 renal; 17.7 µM in the assay on SK-OV-3 ovarian; 16.7 µM in the assay on SNB-19 CNS; 6.26 µM in the assay on HCT-15 colon; 14.7 µM in the assay on SW-620 colon; 14.5 µM with MALME-3M melanoma. In addition, the GI50 was 17.6 µM in the assay with HOP-62 NSCLC, 18.2 µM in the assay with OVCAR-8 ovarian and 10.9 µM in the assay on MCF7 breast. Further, the TGI with UO-31 renal came out at 30.1 µM; with SK-OV-3 ovarian, 53.9 µM; in the assay with SNB-19 CNS it was 45.7 µM; with HCT-15 colon, 21.4 µM; in the assay on SW-620 colon, 27.8 µM; in the assay with MALME-3M melanoma, 28.3 µM. For the same compound, the TGI in the assay on HOP-62 NSCLC stood at 51.9 µM; in the assay on OVCAR-8 ovarian, 34.3 µM; in the assay on MCF7 breast, 26.8 µM.
Take `COC(=O)C12OCC34C(CC5C(C)=CC(=O)C(O)C5(C)C3C(O)C1O)OC(=O)C(OC(=O)CC(C)C)C24` (centres undefined): the concentration for 50% growth inhibition (GI50) in the assay with UO-31 renal is 0.256 µM and 0.0637 µM; in the assay with SK-OV-3 ovarian, 0.3 µM and 0.05 µM; in the assay with A549 NSCLC it was < 0.0399 µM and 0.05 µM; in the assay on HCT-15 colon, 0.0565 µM and 0.05 µM; in the assay with SW-620 colon it was 0.042 µM and 0.05 µM; in the assay on MALME-3M melanoma, under 0.0356 µM. The GI50 with HOP-62 NSCLC is 0.0439 µM and 0.05 µM; in the assay on OVCAR-8 ovarian, < 0.0391 µM and 0.05 µM; in the assay on MCF7 breast, 0.000602 µM. Besides, the TGI in the assay on MCF7 breast was 0.00221 µM.
Regarding `O=C(Nc1cc(Cl)cc(Cl)c1)c1ccc(NC2=C(Cl)C(=O)N(Cc3ccccc3)C2=O)cc1`, the GI50 in the assay on UO-31 renal is 2.29 µM; in the assay on SK-OV-3 ovarian, 22 µM; with SNB-19 CNS it was 41.7 µM; in the assay with A549 NSCLC, 10.8 µM; in the assay with HCT-15 colon, 4.68 µM; in the assay on MALME-3M melanoma it was 14.6 µM. For the same compound, the GI50 is 4.21 µM in the assay with HOP-62 NSCLC, 2.62 µM in the assay with OVCAR-8 ovarian and 1.29 µM in the assay with MCF7 breast. Further, the TGI with UO-31 renal was 6.01 µM; with SK-OV-3 ovarian it was 73.7 µM; in the assay with SNB-19 CNS, over 100 µM; in the assay with A549 NSCLC, 32.4 µM; in the assay with HCT-15 colon, 19.7 µM; in the assay with MALME-3M melanoma, 30.4 µM. In addition, the TGI with HOP-62 NSCLC worked out at 17.8 µM; with OVCAR-8 ovarian it was 6.32 µM; with MCF7 breast, 4.86 µM.
Regarding `Cn1cc(-c2nc(-c3cn(C)c4ncccc34)cs2)c2cc(F)ccc21`, the GI50 in the assay on SK-OV-3 ovarian is 2.4 µM; in the assay with SNB-19 CNS, 2.89 µM; with A549 NSCLC, 1.74 µM; in the assay with HCT-15 colon, 1.51 µM; in the assay with SW-620 colon it was 1.23 µM; with HOP-62 NSCLC it was 2.67 µM. Further, the GI50 with OVCAR-8 ovarian was 3.26 µM; in the assay on MCF7 breast, 0.528 µM. In addition, the TGI in the assay on SK-OV-3 ovarian was 21.2 µM; in the assay on SNB-19 CNS, over 100 µM; in the assay on A549 NSCLC, over 100 µM; in the assay on HCT-15 colon, over 100 µM; with SW-620 colon, over 100 µM; with HOP-62 NSCLC it was 84.7 µM. Besides, the TGI in the assay on OVCAR-8 ovarian is over 100 µM; with MCF7 breast it was 60.5 µM.
